One assay concerns NF-κB. As to the kind of experiment: NF-κB inhibitory assay (luciferase, HEK293 with stable NF-κB expression, TNF-α stimulation). To be noted: read-out: NF-κB (IC50). In kind it is cell-based. As for the experimental part: HEK293 with a stable NF-κB expression cell line was used for the luciferase assay. Cells were maintained at 37 °C and 5% CO2 atmosphere in Dulbecco’s modified Eagle’s medium with 100 U/mL benzylpenicillin 100 μg/mL streptomycin, 2 mM glutamine, and 10% fetal bovine serum. Before seeding in 96-well plates, the cells were stained for 1 h in serum-free medium supplemented with […] cell Tracker Green CMFDA. Cells were seeded into 96-well plates and incubated for 24 h, and then treated with different concentrations of the tested compounds followed by stimulation with 20 ng/mL TNF-α. The luciferase substrate was added to each well after incubation for 6 h, and then the released luciferin signal was detected using an EnVision microplate reader. The IC50 value was derived from a nonlinear regression model (curve-fit), based on a sigmoidal dose response curve (variable slope) and computed using Graphpad Prism 5 (Graphpad Software). Bortezomib (PS-341, CAS No. 179324-69-7) was used as the positive control.

In assay [1] the test system is C. albicans SC5314 sensitive strain. As to the kind of experiment: Anti-fungal susceptibility assay (CLSI M27-A3), sensitive strain. In kind it is cell-based. The settings on record: Candida albicans, 48 h incubation at 37 °C. As for the experimental part:
An anti-fungal assay was carried out on the basis of the Clinical and Laboratory Standards Institute (CLSI) method M27-A3 [45, 48]. A single colony of Candida albicans (the resistant strain 901 or the sensitive strain 5314) was chosen from Sabouraud’s agar and then inoculated in yeast extract peptone dextrose medium (YEPD) for activation by shake bottled cultivation (200 rpm, 37 °C). After 16 h, fungi in the late-exponential growth phase were obtained, followed by being adjusted to 1 × 10^3–5 × 10^3 CFU/mL with RPMI 1640 medium. The density of the fungi in 96-well plates was 10^3 CFU/mL, while the final concentrations of the test compounds ranged from 64 to 0.125 μg/mL in triplicate. The assay volume in each well was 100 μL with MIC80 determined following 48 h incubation at 37 °C. Optical density was measured with a microplate reader (Multiskan MK3; Labsystems, Nantaa, Finland) at 630 nm. MIC80 was determined as the lowest concentration of the drugs that inhibited growth by 80% compared with the […]. Fluconazole was used as the positive control.

Experimental findings from article PMC8037097, “Highly Oxygenated Triterpenoids and Diterpenoids from Fructus Rubi (Rubus chingii Hu) and Their NF-kappa B Inhibitory Effects” (Molecules, 2021) are described below.

Values after ≈ are worked out from the molar mass of the structure shown. Read-outs that look alike come from different tables or passages of the source.

Broadly, the IC50 is the point on the concentration scale where inhibition reaches its midpoint. A word on the MIC80: it is an inhibitory concentration at the 80% level, which refers to growth in some studies and to a panel of isolates in others. Low readings indicate greater potency, high ones weaker potency.

As for cucurbitacin B [Compound 15], the IC50 in the assay on NF-κB (HEK293 NF-κB luciferase, 20 ng/mL TNF-α, 6 h, mean SEM of triplicated experiments) worked out at 0.08 ± 0.03 µM. As for `CC(C)(O)/C=C/C(=O)[C@](C)(O)[C@H]1[C@H](O)C[C@@]2(C)[C@@H]3CC=C4[C@@H](CC(=O)[C@@H](O)C4(C)C)[C@]3(C)C(=O)C[C@]12C` [Compound 17, 3α,16α,20(R),25-tetrahydroxy-cucurbita-5,23-dien-2,11,22-trione], the 50% inhibitory concentration (IC50) with NF-κB (Homo sapiens, HEK293, 6 h) is 1.6 ± 0.32 µM. Take `CC(C)C[C@H](NC(=O)[C@H](Cc1ccccc1)NC(=O)c1cnccn1)B(O)O` [PS-341, Bortezomib, reference compound]: the IC50 in the assay with NF-κB (Homo sapiens, HEK293 NF-κB luciferase, 20 ng/mL TNF-α, 6 h, mean SEM of triplicated experiments) worked out at 0.44 ± 0.08 µM. `CC(C)(O)/C=C/C(=O)[C@](C)(O)[C@H]1[C@H](O)C[C@@]2(C)[C@@H]3CC=C4[C@@H](C[C@H](O)C(=O)C4(C)C)[C@]3(C)C(=O)C[C@]12C` [Compound 16, cucurbitacin D]: the IC50 in the assay on NF-κB (Homo sapiens, HEK293, 6 h) was 0.61 ± 0.12 µM. For `CC1(C)CC[C@]2(C(=O)O)CC[C@]3(C)C(=CC[C@@H]4[C@@]5(C)C[C@@H](O)[C@@H](O)[C@@](C)(CO)[C@@H]5CC[C@]43C)[C@@H]2C1` [Compound 12], in assay [1], the MIC80 was 32 mg/L (≈ 65.5 µM). Regarding `OC(Cn1cncn1)(Cn1cncn1)c1ccc(F)cc1F` [Fluconazole, reference compound], the MIC80 in assay [1] amounted to 0.125 mg/L (≈ 0.408 µM).
